Experimental data as given in patent US11524938B2, “Aromatic sulfonamide derivatives” (Bayer Pharma Aktiengesellschaft, priority 2016, dated 2022).

Target: T1, human P2X4 (Homo sapiens, UniProt Q99571)
T1 sequence (Q99571 1-388): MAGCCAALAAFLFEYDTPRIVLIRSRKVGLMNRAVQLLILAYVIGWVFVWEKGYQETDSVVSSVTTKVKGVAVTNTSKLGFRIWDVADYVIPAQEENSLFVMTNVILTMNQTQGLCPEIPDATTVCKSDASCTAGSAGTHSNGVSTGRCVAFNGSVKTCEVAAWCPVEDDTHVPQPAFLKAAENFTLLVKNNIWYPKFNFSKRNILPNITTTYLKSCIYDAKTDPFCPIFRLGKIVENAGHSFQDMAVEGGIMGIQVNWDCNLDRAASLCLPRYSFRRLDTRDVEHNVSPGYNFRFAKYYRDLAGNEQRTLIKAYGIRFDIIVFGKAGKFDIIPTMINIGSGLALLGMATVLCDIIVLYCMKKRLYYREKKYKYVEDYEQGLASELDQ
Assay: Human P2X4 HEK Cell FLIPR Assay
Format: cell-based
Conditions: agonist Bz-ATP at EC80; for Emax: HEK293, HEK293 cells, read-out: Human P2X4 HEK Cells (FLIPR Assay) avg Efficacy [%]; for IC50: individual values listed where some fall outside detection range
How it was run: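 HEK293 cells stably expressing human P2X4, Fluo8-AM loaded 30 min at 37° C, then compound 30 min at room temperature (0.5% DMSO, pH 7.4 buffer with 1.8 mM CaCl2). Bz-ATP at its daily-determined EC80 added; calcium fluorescence read over 120 sec; IC50 from peak RFU normalized to agonist control, triplicates.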

[1] = percentage of maximal inhibition

Compound `NS(=O)(=O)c1cc(NC(=O)Cc2cc(F)ccc2Cl)ccc1-n1cnc(C(F)(F)F)n1` [Example 58, 2-(2-Chloro-5-fluorophenyl)-N-{3-sulfamoyl-4-[3-(trifluoromethyl)-1H-1,2,4-triazol-1-yl]phenyl}acetamide] has an Emax [1] of 54% and an IC50 (HEK293 cells) of 73 nM.
Work on `NS(=O)(=O)c1cc(NC(=O)Cc2ccccc2Cl)ccc1-n1cc(C(=O)N2CCC(F)(F)C2)cn1` [Example 443, 2-(2-Chlorophenyl)-N-(4-{4-[(3,3-difluoropyrrolidin-1-yl)carbonyl]-1H-pyrazol-1-yl}-3-sulfamoylphenyl)acetamide] yielded an Emax [1] of 84% and an IC50 (HEK293 cells) of 122 nM.
Work on `NS(=O)(=O)c1cc(NC(=O)Cc2ccccc2Cl)ccc1-n1cc(-c2cnccn2)cn1` [Example 401, 2-(2-Chlorophenyl)-N-{4-[4-(pyrazin-2-yl)-1H-pyrazol-1-yl]-3-sulfamoylphenyl}acetamide] yielded an Emax [1] of 82% and an IC50 (HEK293 cells) of 23 nM.
In the case of `CC(C)(C)C(O)Cn1cc(-c2ccc(NC(=O)Cc3ccccc3Cl)cc2S(N)(=O)=O)cn1` (centres unmarked) [Example 361, 2-(2-Chlorophenyl)-N-{4-[1-(2-hydroxy-3,3-dimethylbutyl)-1H-pyrazol-4-yl]-3-sulfamoylphenyl}acetamide], the Emax [1] is reported as 83% and the IC50 (HEK293 cells) is reported as 97 nM.
In the case of `NS(=O)(=O)c1cc(NC(=O)Cc2cc(F)ccc2Cl)ccc1-n1cc(C(F)(F)F)cn1` [Example 139, 2-(2-Chloro-5-fluorophenyl)-N-{3-sulfamoyl-4-[4-(trifluoromethyl)-1H-pyrazol-1-yl]phenyl}acetamide], the Emax [1] is reported as 100% and the IC50 (HEK293 cells) is reported as 107 nM.
For `NS(=O)(=O)c1cc(NC(=O)Cc2cc(F)c(F)cc2Cl)ccc1-n1cc(Br)cn1` [Example 71, N-[4-(4-Bromo-1H-pyrazol-1-yl)-3-sulfamoylphenyl]-2-(2-chloro-4,5-difluorophenyl)-acetamide], the Emax [1] was 80% and the IC50 (HEK293 cells) was 132 nM.
`Cc1ccc(CC(=O)Nc2ccc(-c3cncc(C(F)(F)F)c3)c(S(N)(=O)=O)c2)c(F)c1` [Example 456, 2-(2-Fluoro-4-methylphenyl)-N-{3-sulfamoyl-4-[5-(trifluoromethyl)pyridin-3-yl]phenyl}acetamide] showed an Emax [1] of 59% and an IC50 (HEK293 cells) of 18 nM.
In the case of `NS(=O)(=O)c1cc(NC(=O)Cc2cccnc2Cl)ccc1-n1cc(Br)cn1` [Example 67, N-[4-(4-Bromo-1H-pyrazol-1-yl)-3-sulfamoylphenyl]-2-(2-chloropyridin-3-yl)-acetamide], the Emax [1] is reported as 98% and the IC50 (HEK293 cells) is reported as 1510 nM.
Work on `Cc1ccc(CC(=O)Nc2ccc(-n3ncc(C(F)(F)F)n3)c(S(N)(=O)=O)c2)cc1` [Example 408, 2-(4-Methylphenyl)-N-{3-sulfamoyl-4-[4-(trifluoromethyl)-2H-1,2,3-triazol-2-yl]phenyl}acetamide] yielded an Emax [1] of 74% and an IC50 (HEK293 cells) of 2640 nM.
`Cc1cc(C#N)nn1-c1ccc(NC(=O)Cc2ccccc2Cl)cc1S(N)(=O)=O` [Example 545, 2-(2-Chlorophenyl)-N-[4-(3-cyano-5-methyl-1H-pyrazol-1-yl)-3-sulfamoylphenyl]acetamide] showed an Emax [1] of 100% and an IC50 (HEK293 cells) of 19 nM.
For `C[C@H]1CC[C@H](C)N1c1cnn(-c2ccc(NC(=O)Cc3ccccc3Cl)cc2S(N)(=O)=O)c1` (single isomer, unassigned) [Example 513, 2-(2-Chlorophenyl)-N-(4-{4-[(trans)-2,5-dimethylpyrrolidin-1-yl]-1H-pyrazol-1-yl}-3-sulfamoylphenyl)acetamide], the IC50 (HEK293 cells) was 893 nM and the “Human P2X4 HEK Cells (FLIPR Assay) avg Efficacy [%]” value (HEK293 cells, percentage of maximal inhibition) was 94%.
`NS(=O)(=O)c1cc(NC(=O)Cc2ccccc2F)ccc1-n1cc(C(F)(F)F)nn1` [Example 413, 2-(2-Fluorophenyl)-N-{3-sulfamoyl-4-[4-(trifluoromethyl)-1H-1,2,3-triazol-1-yl]phenyl}acetamide] showed an Emax [1] of 89% and an IC50 (HEK293 cells) of 74 nM.
In the case of `NS(=O)(=O)c1cc(NC(=O)Cc2ccccc2Cl)ccc1-n1cnc2ccccc21` [Example 32, N-[4-(1H-Benzimidazol-1-yl)-3-sulfamoylphenyl]-2-(2-chlorophenyl)acetamide], the Emax [1] is reported as 93% and the IC50 (HEK293 cells) is reported as 139 nM.
With `COc1ccccc1CC(=O)Nc1ccc(-n2cnc(C(F)(F)F)n2)c(S(N)(=O)=O)c1` [Example 53, 2-(2-Methoxyphenyl)-N-{3-sulfamoyl-4-[3-(trifluoromethyl)-1H-1,2,4-triazol-1-yl]-phenyl}acetamide] the Emax [1] was 52% and the IC50 (HEK293 cells) was 169 nM.
`Cc1ncnn1-c1ccc(NC(=O)Cc2ccccc2Cl)cc1S(N)(=O)=O` [Example 6, 2-(2-Chlorophenyl)-N-[4-(5-methyl-1H-1,2,4-triazol-1-yl)-3-sulfamoylphenyl]-acetamide] gave an Emax [1] of 84% and an IC50 (HEK293 cells) of 1070 nM.
`N#Cc1cnn(-c2ccc(NC(=O)Cc3cccc(F)c3F)cc2S(N)(=O)=O)c1` [Example 200, N-[4-(4-Cyano-1H-pyrazol-1-yl)-3-sulfamoylphenyl]-2-(2,3-difluorophenyl)acetamide] showed an Emax [1] of 90% and an IC50 (HEK293 cells) of 131 nM.
In the case of `Cc1ccccc1CC(=O)Nc1ccc(-n2cc(Cl)cn2)c(S(N)(=O)=O)c1` [Example 173, N-[4-(4-Chloro-1H-pyrazol-1-yl)-3-sulfamoylphenyl]-2-(2-methylphenyl)acetamide], the Emax [1] is reported as 80% and the IC50 (HEK293 cells) is reported as 28 nM.
`Cc1ccc(F)c(CC(=O)Nc2ccc(-n3cc(C(F)(F)F)cn3)c(S(N)(=O)=O)c2)c1Cl` [Example 132, 2-(2-Chloro-6-fluoro-3-methylphenyl)-N-{3-sulfamoyl-4-[4-(trifluoromethyl)-1H-pyrazol-1-yl]phenyl}acetamide] gave an Emax [1] of 62% and an IC50 (HEK293 cells) of 80 nM.
In the case of `Cc1ccn(-c2ccc(NC(=O)Cc3ccccc3Cl)cc2S(N)(=O)=O)n1` [Example 273, 2-(2-Chlorophenyl)-N-[4-(3-methyl-1H-pyrazol-1-yl)-3-sulfamoylphenyl]acetamide], the Emax [1] is reported as 60% and the IC50 (HEK293 cells) is reported as 35 nM.
For `NS(=O)(=O)c1cc(NC(=O)Cc2ccccc2Cl)ccc1-c1ccc(Cl)nc1` [Example 274, 2-(2-Chlorophenyl)-N-[4-(6-chloropyridin-3-yl)-3-sulfamoylphenyl]acetamide], the Emax [1] was 97% and the IC50 (HEK293 cells) was 19 nM.
`NS(=O)(=O)c1cc(NC(=O)Cc2cccc(F)c2)ccc1-c1ccc(Cl)nc1` [Example 464, N-[4-(6-Chloropyridin-3-yl)-3-sulfamoylphenyl]-2-(3-fluorophenyl)acetamide] was tested, and the Emax [1] was 92% and the IC50 (HEK293 cells) was 648 nM.
For `NS(=O)(=O)c1cc(NC(=O)Cc2ccc(Cl)cc2)ccc1-n1cc(C(F)(F)F)cn1` [Example 108, 2-(4-Chlorophenyl)-N-{3-sulfamoyl-4-[4-(trifluoromethyl)-1H-pyrazol-1-yl]phenyl}-acetamide], the Emax [1] was 35% and the IC50 (HEK293 cells) was > 25000 nM.
Compound `N#Cc1cnn(-c2ccc(NC(=O)Cc3ccccc3[N+](=O)[O-])cc2S(N)(=O)=O)c1` [Example 180, N-[4-(4-Cyano-1H-pyrazol-1-yl)-3-sulfamoylphenyl]-2-(2-nitrophenyl)acetamide] has an Emax [1] of 77% and an IC50 (HEK293 cells) of 319 nM.
`COc1ncn(-c2ccc(NC(=O)Cc3ccccc3Cl)cc2S(N)(=O)=O)n1` [Example 249, 2-(2-Chlorophenyl)-N-[4-(3-methoxy-1H-1,2,4-triazol-1-yl)-3-sulfamoylphenyl]-acetamide] was tested, and the Emax [1] was 72% and the IC50 (HEK293 cells) was 8460 nM.
With `NS(=O)(=O)c1cc(NC(=O)Cc2ccccc2Cl)ccc1-c1ccsn1` [Example 419, 2-(2-Chlorophenyl)-N-[3-sulfamoyl-4-(1,2-thiazol-3-yl)phenyl]acetamide] the Emax [1] was 89% and the IC50 (HEK293 cells) was 274 nM.
